Tested on: Erythemic response
Experiment: Erythemic response inhibition, UV-exposed guinea pig skin (modified method of Winder), topical
Type: in vivo, Albino guinea pigs
Details: groups of four; for ED50 (dose which produced a 50% inhibition of the erythemic response): in 0.1 cc. ethanol, 12 cm.^2 skin, plotted or calculated, in several instances by extrapolation; for Inhibition % (% Inhibition compared with control): dose 100 mcg./12 cm.^2, in 0.1 cc. ethanol
Description: A modification of the method of Winder was used to measure the anti-inflammatory activites of the compounds of the present invention; see C. V. Winder, et al., Arch. Int. Pharmacodyn., 116, 261 (1958). Albino guinea pigs of either sex, weighing 225-300 grams, were shaved on the back and chemically depilated (Nair® Lotion Hair Remover, Carter Products, N.Y., N.Y.) 18-20 hours before exposure to ultraviolet light. The animals, in groups of four and bearing identifying ear tags, were treated by applying to an area of skin of about 12 cm.^2 a solution of test compound dissolved in 0.1 cc. of ethanol. The control treatment consisted of administering only the drug vehicle, ethanol, to a group of four animals. Groups of four animals each were given different treatment levels of test compound to obtain dose responses. Random order and blind administration of the test compounds were employed; drug identification was not made until after all animals were graded. Immediately prior to drug application, the animals were exposed in groups of four to a high-intensity ultraviolet light for a measured period of time (usually 4-7 seconds). The ultraviolet light source, a Hanovia Lamp (Kroymayer-Model 10), was placed in contact with the skin of the animal's back. A gummed notebook paper reinforcement was affixed to the lamp lens to provide an unexposed area of contrast for grading the erythema. Beginning one hour after exposure and thereafter at half-hour intervals for another 11/2 hours, the degree of resulting erythema was graded by an arbiturary scoring system based upon the degree of contrast and redness formed. Anti-inflammatory agents delay the development of the erythema and usually have their greatest effect at the initial grading periods. The scores were, therefore, weighted by factors of 4, 3, 2, and 1 at the 1.0, 1.5, 2.0, and 2.5 hour scoring times, respectively. The erythema was graded as follows: […]
______________________________________
Score Appearance of Exposed Area
0 No redness and no contrast
1 Slight redness with a faint
2 Slight to moderate redness
with a distinct outline
3 Marked redness with a distinct
Total scores from each treatment group of four guinea pigs were compared to the control treatment, and the percent inhibition was calculated as follows: [formula]
A dose-response graph was obtained by plotting dose versus percent inhibition, the points representing the average of each treatment group of four guinea pigs. The dose (ED50) in micrograms per 12 cm.^2 (mcg./12 cm.^2) which produced a 50% inhibition of the erythemic response for the particular compound tested was obtained in several instances by extrapolation. Table I below summarizes the results obtained from testing representative compounds of the invention by the foregoing method. The plotted or calculated ED50 for the particular compound tested, where available, is given in the last column of Table I.

Structure (SMILES) | ED50 (dose which produced a 50% inhibition of the erythemic response) | Inhibition % (% Inhibition compared with control)
CCc1nnc(-c2ccc(OC)cc2)c(-c2ccc(OC)cc2)n1 [C2 H5 -- 0 OCH3 OCH3, 3-ethyl-5,6-bis(4-methoxyphenyl)-1,2,4-triazine] | 4 mcg./12 cm.^2 | 
CCOc1nnc(-c2ccc(OC)cc2)c(-c2ccc(OC)cc2)n1 [C2 H5 O 1 OCH3 OCH3, 3-ethoxy-5,6-bis(4-methoxyphenyl)-1,2,4-triazine] | 3.1 mcg./12 cm.^2 | 
CCSc1nnc(-c2ccc(OC)cc2)c(-c2ccc(OC)cc2)n1 [C2 H5 S 1 OCH3 OCH3, 3-ethylthio-5,6-bis(4-methoxyphenyl)-1,2,4-triazine] | 21.3 mcg./12 cm.^2 | 
CCCCCCSc1nnc(-c2ccc(OC)cc2)c(-c2ccc(OC)cc2)n1 [C6 H13 S 1 OCH3 OCH3, 3-hexylthio-5,6-bis(4-methoxyphenyl)-1,2,4-triazine] | 37.4 mcg./12 cm.^2 | 
COc1ccc(-c2nnc(SCc3ccccc3)nc2-c2ccc(OC)cc2)cc1 [CH2 C6 H5 S 1 OCH3 OCH3, 3-benzylthio-5,6-bis(4-methoxyphenyl)-1,2,4-triazine] |  | 49%
COc1ccc(-c2nnc(C)nc2-c2ccc(OC)cc2)cc1 [CH3 -- 0 OCH3 OCH3, 5,6-bis(4-methoxyphenyl)-3-methyl-1,2,4-triazine] | 2.4 mcg./12 cm.^2 | 
COc1ccc(-c2nnc(OC)nc2-c2ccc(OC)cc2)cc1 [CH3 O 1 OCH3 OCH3, 3-methoxy-5,6-bis(4-methoxyphenyl)-1,2,4-triazine] | 7 mcg./12 cm.^2 | 
COc1ccc(-c2nnc(SC)nc2-c2ccc(OC)cc2)cc1 [CH3 S 1 OCH3 OCH3, 5,6-bis(4-methoxyphenyl)-3-methylthio-1,2,4-triazine] | 9 mcg./12 cm.^2 | 
COc1ccc(-c2nnc(SC(C)C)nc2-c2ccc(OC)cc2)cc1 [CH(CH3)2 S 1 OCH3 OCH3, 3-isopropylthio-5,6-bis(4-methoxyphenyl)-1,2,4-triazine] |  | 35%
